Test system: pupillary light reflex of an individual
Assay: pupillary light reflex after inhalation of THC (pupillometry)
Type: in vivo
Text: Following acquisition 131, primary data such as, for instance, pupillary dimensions and pupillary oscillations therefrom, can be determined for each of the plurality of video frames in the video sequence of the eye of the patient 132. […]
Pupillary oscillations and/or reactions to light, as described above, can reflect the activity of the autonomic nervous system. […] The pupillary light reflex can be evaluated via the method, and apparatus thereof, of the present disclosure, wherein higher frequency activation occurs with increased sympathetic tone and lower frequency activation occurs from increased parasympathetic tone. […]
According to an embodiment, a variety of pupillometric measures can be evaluated from pupillary data following initial video sequence processing 132 such that, in combination with secondary data 134 including frequency spectra, patient response profiles can be better characterized. […] As introduced above, the baseline pupil size can be found before the flash of light and the maximally constricted size can be determined after the flash of light. […]

## CCCCCc1cc(O)c2c(c1)OC(C)(C)[C@@H]1CCC(C)=C[C@@H]21 [THC, Δ^9-tetrahydrocannabinol]
cannabis-tolerant individual, 30, 60, 90, 120 and 150 minutes after inhalation of THC, FIG. 4
  influence on pupillary light reflex: inhibited to varying levels
individual, 30, 60, 120 and 180 minutes after inhalation of 24 mg of THC, FIG. 3
  influence on pupillary light reflex: inhibited to varying levels

From patent publication US11986315B2, “Apparatus and method for the non-invasive detection of tetrahydrocannabinol use and impairment” (CHILDREN'S NATIONAL MEDICAL CENTER, priority 2018, dated 2024)
